Entries after “also recorded” stand apart in the source; their conditions may differ.
What was measured:
PKR2 = target: T1, PKR2 (Homo sapiens, UniProt Q8NFJ6); assay: Antagonism of PK2-induced calcium influx (luminescence) in CHO cells stably expressing PKR2; type: cell-based; conditions: luminescence (RLU), read-out: inhibition constant (Ki) for blocking activation of PKR2 by PK2
T1 construct: expressed in transfected cells
Experimental: FIG. 4 is a graphical representation showing the antagonistic effect of Compound I in Chinese Hamster Ovary cells that stably express PKR2. Dose-dependent response of PKR2 activation by PK2 in the presence of different concentrations of Compound I was measured with a luminometer. RLU is an index for calcium influx measurement for this luminescence-based assay. The dose-dependent calcium influx activated by PK2 was antagonized by Compound I. The inhibition constant obtained from this experiment was approximately 15 nM.
(§1) Via custom synthesis, 10 grams of one of the morpholine carboximide derivatives was obtained, with chemical name of (±)-4-Benzyl-N-(3,4-dihydro-2H-1,5-benzodioxepin-7-ylmethyl)-N-isobutylmorpholine-2-carboxamide, compound I (FIG. 5). Compound I was tested using the in vitro ischemia model. […] We utilized compound I as a parent compound to test the potential therapeutic effect of blocking PKR2 in cerebral ischemia models.

[1] = Pharmacokinetic study, brain concentration; type: in vivo; conditions: intraperitoneal injection of 60 mg/kg in rats
Experimental: as §1

[2] = tested on: brain infarct in experimental stroke model; assay: Experimental stroke model, infarct volume after i.p. compound I; type: in vivo, rats; conditions: 50 mg/kg i.p., 30 minutes pre-ischemia; n=5, p<0.05; listed as compound I
Experimental: TTC staining and infarct quantification was performed as follows. 24 hours after reperfusion, rats were perfused with ice cold PBS and the brain was sectioned into 2 mm thickness. Brain sections were stained in 2,3,5 triphenyl tetrazolium chloride (TTC) solution for 15 minutes or until infarct was visible, followed by fixation with 4% PFA overnight. Next day the brain sections were aligned from rostral to caudal and brain sections were scanned. Infarct size and volume was quantitated using the software Image J. Infarct and cortex was outlined and measured using Image J. Percent infarct represents infarct area over entire cortex area. Percent volume was measured by multiplying the area by the section thickness (2 mm). Compound I reduced infarct size in ischemia models. The effect of compound I in experimental stroke models was tested. […] Compound I-treated rats had smaller infarct at almost every level.

PK2 mRNA [3] = assay: PK2 mRNA in situ hybridization after pilocarpine-induced seizure; type: in vivo, mice; conditions: CeA; for PK2 mRNA induction after pilocarpine in diazepam-pretreated animals: CA3 and dentate gyrus, diazepam prior to pilocarpine
Experimental: (§2) All injections were administered through intraperitoneal injections (i.p.) Pilocarpine: to reduce muscarinic peripheral effects, all animals injected with pilocarpine were given 2 mg/kg of methylscopolamine (dissolved in saline 0.4 mg/ml) 30 minutes prior to injection. Pilocarpine-induced seizure was then initiated by injecting littermate mice (C57BL-6 or mix C57BL-6 with CD1) i.p. with (200 or 400 mg/kg) pilocarpine, respectively. Thereafter, animals were then assessed for seizure, as describe above, and sacrificed according to the following time course (30, 1 hr, 3 hrs, 6 hrs, 12 hrs, 36 hrs, 72 hrs). For groups within the pentylenetetrazol (metrazol, PTZ), mice were administered 75 mg/kg PTZ and subsequently monitored for 20 minutes. PTZ kindling were accomplished by administering 45 mg/kg PTZ every other day for 14 days. Animals that reach S5 on the first day were not included in the experiments. Each animal was injected and monitored for S5 seizure. Once S5 is reached, the animal was considered kindled, and was taken out of the injection regimen.
(§3) In situ hybridization was done according to Cheng et al 2001. Antisense and sense riboprobes containing the 3′ UTR of mouse PK2 (GenBank accession number AF487279; residues 1147-2211), PKR1 (3′ UTR) and PKR2 (3′ UTR) were generated. […] Sections were then cut at 20-μm and processed for in situ as described by Winzer-Serhan et al. mRNA distributions from autoradiograms and emulsion-dipped sections were then analyzed and quantified with a system called MCID (Imaging Research). Calibration curve was generated by optical density versus radioactivity (disintegrations per minute (d.p.m.) per mg tissue wet weight) using 14 C standards. […]
A time course analysis for PK2 mRNA induction and upregulation in the pilocarpine-induced seizure model was performed. A total of seven time points (30 minutes, 1 hr, 3 hrs, 6 hrs, 12 hrs, 36 hrs, and 72 hrs post pilocarpine injection) were analyzed. […]

PKR2 mRNA = PKR2 mRNA in situ hybridization after pilocarpine-induced seizure; type: in vivo, mice
Experimental: as §2, with “Animals that reach S5 on the first day were not included in the experiments.” left out, “Once S5 is reached, the animal was considered kindled, and was taken out of the injection regimen.” left out
as §3, with “2001.” for “2001. Antisense and sense riboprobes containing the 3′ UTR of mouse PK2 (GenBank accession number AF487279; residues 1147-2211), PKR1 (3′ UTR) and PKR2 (3′ UTR) were generated.”

PK2 mRNA [4] = assay: PK2 mRNA in situ hybridization in PTZ seizure model; type: in vivo, mice; conditions: data not shown
Experimental: as §2, with “Animals that reach S5 on the first day were not included in the experiments.” left out, “Once S5 is reached, the animal was considered kindled, and was taken out of the injection regimen.” left out
as §3, with “2001.” for “2001. Antisense and sense riboprobes containing the 3′ UTR of mouse PK2 (GenBank accession number AF487279; residues 1147-2211), PKR1 (3′ UTR) and PKR2 (3′ UTR) were generated.”

[5] = tested on: brain infarct after distal MCAO; assay: Distal MCAO experimental stroke with ICV delivery of PK2, TTC infarct quantitation; type: in vivo, rats; conditions: PK2 0.3 nmol ICV within one hour after reperfusion, 24 hr, n=5, p<0.001
Experimental: Distal Middle Cerebral Artery Occlusion (dMCAO) was performed in the PK2 intracerebroventricular […] infusion study. Anesthesia induced by 5% isoflurane and maintained by 2-3% isoflurane. A ventral midline incision was made, and the two CCAs were isolated. […] were placed around the CCAs, and the animal was placed on its right side. A 2-cm vertical scalp incision was made midway between the left eye and ear. The temporalis muscle was bisected and a 2-mm burr hole was made at the junction of the zygomatic arch and squamous bone to expose the distal MCA. The dura was cut and the distal MCA was permanently electro-cauterized. The CCA were then occluded with clips for 1 hour, and the animals were sacrificed and perfused after 24 hr. PK2 (0.3 nmol) was stereotaxically infused prior or post-ischemia. […] Body temperature, ECG, and respiration rate were monitored every 15 minutes and kept in physiological ranges. […] TTC staining and infarct quantification was performed as follows. […] Infarct size and volume was quantitated using the software Image J. Infarct and cortex was outlined and measured using Image J. Percent infarct represents infarct area over entire cortex area. Percent volume was measured by multiplying the area by the section thickness (2 mm). […] FIGS. 2B and C are graphs showing quantitation of infarct volume. […]

[6] = tested on: GABA (α1β1γ2) currents in oocytes with PKR2; assay: GABA-evoked currents in Xenopus oocytes, two-electrode voltage clamp; type: cell-based, Xenopus laevis; conditions: GABA 10 uM; PK2 10 nM-30 nM; over 60 min; holding potential -70 mV
Experimental: FIG. 13 is a series of graphical representations showing PK2-induced reduction of GABA (α1β1γ2) currents. […] GABA (10 uM) evoked GABA currents without PK2 show no appreciable reduction over a 70 min course. Addition of PK2 (10 nM-30 nM) decreased GABA-evoked current over a period of 60 min. FIG. 13B is a graphical representation showing the average percent reduction of normalized GABA-evoked currents after addition of PK2. […] One-way Anova with post-Dunnet correction indicates (p<0.05) across all time points when compared to normalized base.
Multiple studies have found a complex system of inhibition, disinhibition, and various physiological consequences, depending on the circuitry and subtypes involved; all of which have important consequences in epileptogenesis. The role of PK2 and GABAA receptor, especially with the αβγ-GABAA which are found in the amygdale was investigated. […]. To do this study, a mixture of RNA containing α1β1γ2S with or without PKR2 was injected into Xenopus oocytes. GABA currents were then measured using the two-electrode voltage clamp with a holding potential of −70 mV, 4-6 days post injection. Repeated exposure (every 10 mins) with GABA (10 μM) to Xenopus oocytes (αβγ-GABAA or […] containing) induced a reproducible and stable current over a long-term recording (>1 hr).

[7] = tested on: locomotor running wheel activity; conditions: PK2 0.3 nmol; cited from earlier work

T1 sequence (Q8NFJ6 whole entry): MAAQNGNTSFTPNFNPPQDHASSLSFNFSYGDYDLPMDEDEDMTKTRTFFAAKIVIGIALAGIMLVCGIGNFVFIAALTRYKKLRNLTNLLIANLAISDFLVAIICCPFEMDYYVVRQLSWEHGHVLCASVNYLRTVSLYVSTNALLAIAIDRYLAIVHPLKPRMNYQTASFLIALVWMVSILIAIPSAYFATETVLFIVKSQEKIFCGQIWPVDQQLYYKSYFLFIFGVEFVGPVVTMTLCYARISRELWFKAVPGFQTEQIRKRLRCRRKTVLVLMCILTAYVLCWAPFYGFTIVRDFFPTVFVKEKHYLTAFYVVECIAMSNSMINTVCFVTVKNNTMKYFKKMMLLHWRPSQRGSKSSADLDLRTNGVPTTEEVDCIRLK

## CC(C)CN(Cc1ccc2c(c1)OCCCO2)C(=O)C1CN(Cc2ccccc2)CCO1 (racemic) [Compound I, (±)-4-Benzyl-N-(3,4-dihydro-2H-1,5-benzodioxepin-7-ylmethyl)-N-isobutylmorpholine-2-carboxamide]
PKR2
  Ki: ~15 nM
[1]
  brain concentration: significant brain concentration
[2]
  infarct volume versus vehicle PEG400: significantly reduced infarct volume

## CN1C(=O)CN=C(c2ccccc2)c2cc(Cl)ccc21 [Diazepam, diazepam]
PK2 mRNA [3]
  PK2 mRNA induction after pilocarpine in diazepam-pretreated animals: eliminated induction; also recorded: blocks induction of PK2
PK2 mRNA [3]; listed as diazepam
  PK2 mRNA induction after pilocarpine in diazepam-pretreated animals: completely abolished
PKR2 mRNA; seizure activity blocked with diazepam
  PKR2 mRNA induction after pilocarpine with diazepam: eliminated induction

## C1CCc2nnnn2CC1 [PTZ, Pentylenetetrazol]
PK2 mRNA [4]
  PK2 mRNA induction in PTZ seizure model: only a modest upregulation of PK2 mRNA at the medial nucleus of the amygdale

## CC[C@@H]1C(=O)OC[C@@H]1Cc1cncn1C [pilocarpine]
PK2 mRNA [3]; 6 hr post pilocarpine injection
  peak PK2 mRNA induction over basal level: over 100 fold
PKR2 mRNA; CA1/CA2, 6 hr post pilocarpine injection
  peak PKR2 mRNA induction over basal level: about 7 fold

B1: PK2: secreted peptide ligand of G-protein coupled receptors PKR1 and PKR2 (protein, UniProt Q9HC23 28-129, looked up)
Prokineticin-2: AVITGACDKDSQCGGGMCCAVSIWVKSIRICTPMGKLGDSCHPLTRKNNFGNGRQERRKRKRSKRKKEVPFFGRRMHHTCPCLPGLACLRTSFNRFICLAQK
[5]
  infarct volume versus saline: significantly increased overall average infarct volume
[6]
  maximum inhibition of GABA-evoked currents: 75 % of normalized baseline
[7]
  duration of inhibitory response in locomotor running wheel activity: 3 to 5 h

Source: patent US8101158B1, “Methods for treating cerebrovascular disease comprising administering an agent that inhibits prokineticin receptor activity” (The Regents of the University of California, priority 2007, dated 2012)
